The text below walks through data of US10988523B2, “Modified lipidated Relaxin B chain peptides and their therapeutic use” (Sanofi, priority 2018, dated 2021).

Data set [1] is described as follows: Stability testing of peptides in rat plasma or blood. Particulars: 37° C. The class given is in vitro ADME. The essentials:
(§1)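 Peptide at 5 µM final was incubated at 37 °C in heparinized rat or human plasma or blood, sampled up to 4 h, and extracted with acetonitrile/1% TFA. HPLC peak areas relative to t0 give % remaining peptide.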

A further data set addresses T1, RXFP1 (Homo sapiens, UniProt Q9HBX9).
T1 construct: OVCAR5 cells expressing endogenous RXFP1; endogenous in cells; host or cells: OVCAR5 cells
T1 sequence (Q9HBX9 1-757): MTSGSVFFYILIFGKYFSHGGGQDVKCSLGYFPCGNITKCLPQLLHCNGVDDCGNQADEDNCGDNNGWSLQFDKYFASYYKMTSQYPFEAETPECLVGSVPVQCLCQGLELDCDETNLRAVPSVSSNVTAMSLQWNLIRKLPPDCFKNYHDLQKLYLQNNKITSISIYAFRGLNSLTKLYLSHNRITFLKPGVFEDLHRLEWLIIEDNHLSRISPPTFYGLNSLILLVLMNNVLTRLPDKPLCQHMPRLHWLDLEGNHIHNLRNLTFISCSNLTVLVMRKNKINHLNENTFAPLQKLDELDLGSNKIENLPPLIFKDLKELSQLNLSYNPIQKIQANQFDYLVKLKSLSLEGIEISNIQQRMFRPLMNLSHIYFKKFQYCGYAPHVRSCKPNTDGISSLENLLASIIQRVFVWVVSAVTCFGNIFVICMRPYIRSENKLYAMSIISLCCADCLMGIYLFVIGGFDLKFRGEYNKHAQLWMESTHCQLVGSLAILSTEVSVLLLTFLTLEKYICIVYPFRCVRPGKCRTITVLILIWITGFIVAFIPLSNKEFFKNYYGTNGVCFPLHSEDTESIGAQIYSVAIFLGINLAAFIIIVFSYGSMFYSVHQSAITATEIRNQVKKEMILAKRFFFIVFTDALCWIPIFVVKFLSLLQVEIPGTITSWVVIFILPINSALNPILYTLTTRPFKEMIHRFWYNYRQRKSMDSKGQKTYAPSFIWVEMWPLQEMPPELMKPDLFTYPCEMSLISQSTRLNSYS
Kind of data set: OVCAR5 cAMP assay (HTRF), RXFP1 agonist activity. The data set is classed as cell-based. The conditions noted are these: OVCAR-5; maximal cAMP relative to H2-relaxin maximum (100%); read-out: EMax, OVCAR 5 cells (cAMP). The essentials: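 cAMP accumulation readout: after 1 mM IBMX for 40 min, endogenous-RXFP1 OVCAR5 cells got rising peptide concentrations without FCS, 30 min, 37° C, then lysis with HTRF cAMP reagents. Nonlinear regression gave EC50; Emax expressed relative to H2-relaxin maximum, same occasion.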
For orientation: cAMP levels reflect the balance of adenylyl cyclase and phosphodiesterase activity.

The nature of data set [2]: Stability testing of peptides in human plasma or blood. The class given is in vitro ADME. Particulars: 37° C. The procedure, abridged:
as §1

Data set [3] is described as follows: Solubility testing of peptides in buffer. The class given is physicochemical.

≈ marks a conversion by molar mass, not a printed value. Read-outs that look alike come from different tables or passages of the source. *1 amine or outer side, *2 acyl side, *3 side chain or, on linkers, in order; H or OH if unused. Where a SMILES comes first, the peptide text is derived from it. Side-chain parts run from the residue outwards. [ ]: non-standard residue; d: D form. The star is where a group is joined. γGlu = O=C(O)[C@H](CCC(=O)[*:2])N[*:1]; Palmitoyl = CCCCCCCCCCCCCCCC(=O)*; Nle = CCCC[C@H](N)C(=O)O; AEEA = NCCOCCOCC(=O)O; Aib = CC(C)(N)C(=O)O

The Emax is the greatest response seen or fitted, relative to the assay's reference. As usually defined, the solubility is how much of the substance goes into solution per volume. `CCCCCCCCCCCCCCCC(=O)N[C@@H](CCC(=O)N[C@@H](CCC(=O)N[C@@H](CCC(=O)NCCOCCOCC(=O)NCCOCCOCC(=O)NCCCC[C@H](NC(=O)[C@H](CCCCN)NC(=O)[C@H](CCCNC(=N)N)NC(=O)C(C)(C)NC(=O)[C@H](CO)NC(=O)[C@H](Cc1c[nH]c2ccccc12)NC(=O)[C@@H](NC(=O)[C@H](CO)NC(=O)[C@H](CCCC)NC(=O)CNC(=O)[C@H](CCC(=O)O)NC(=O)C(C)(C)NC(=O)C(C)(C)NC(=O)[C@@H](NC(=O)[C@H](CCC(N)=O)NC(=O)[C@H](C)NC(=O)[C@H](CCCNC(=N)N)NC(=O)[C@@H](NC(=O)[C@H](CCCCN)NC(=O)[C@H](CCC(=O)O)NC(=O)[C@H](CCCNC(=N)N)NC(=O)CNC(=O)[C@H](CCC(=O)O)NC(=O)[C@H](CC(C)C)NC(C)=O)C(C)C)[C@@H](C)CC)[C@@H](C)O)C(N)=O)C(=O)O)C(=O)O)C(=O)O` [compound 58] (Ac-LEGREKVRAQI[Aib][Aib]EG[Nle]STWS[Aib]RKK([AEEA-AEEA-γGlu-γGlu-γGlu-Palmitoyl])-NH2): in data set [1] (rat plasma or blood, T = 0 (reference), 5 μM), the “Rat plasma stability % remaining T = 0” value was found to be 100%. Also, the amount remaining at 1 h, 5 µM in data set [1] (rat plasma, 1 h, read-out: Rat plasma stability % remaining 1 h) came out at 96%; in data set [2] (human plasma, 1 h, read-out: Human Plasma stability % remaining 1 h) it was 100%. Moreover, the share remaining at 4 h, 5 µM in data set [1] (rat plasma, 4 h, read-out: Rat plasma stability % remaining 4 h) was found to be 101%; in data set [2] (human plasma, 4 h, read-out: Human Plasma stability % remaining 4 h), 11%. Besides, the Emax at RXFP1 stood at 83%. In data set [2] (human plasma or blood, T = 0 (reference), 5 μM), the “Human Plasma stability % remaining T = 0” value worked out at 100%. Also, the solubility in data set [3] (acetate buffer, pH 4.5, read-out: Solubility Acetate buffer pH 4.5) came to 5700 µg/mL (≈ 1550 µM); in data set [3] (phosphate buffer, pH 7.4, read-out: Solubility phosphate buffer pH 7.4), 5700 µg/mL (≈ 1550 µM).
